For assay [1], the system named is Del19/T790M/C797S EGFR. The experiment in a line: EGFR degradation HTRF assay in H1975-clone #28 (DTC) cells. It is filed as cell-based. As to conditions: H1975 # 28 DTC (Del19/T790M/C797S), 16h treatment; for DC50: HTRF; for Dmax (%): maximum percentage of degradation. The source says: (§1) H1975-clone #28(Del19/T790M/C797S, or abbr: DTC), H1975-clone #23(Del19/C797S, or abbr: DC), H1975-clone #25(L858R/T790M/C797S, or abbr: LTC) and H1975-clone #8 (L858R/C797S, or abbr: LC). EGFR-Del19:T790M/C797S, EGFR-Del19/C797S, EGFR-L858R/T790M/C797S and EGFR-L858R/C797S were stably expressed in H1975 cell lines by lentivirus-mediated over-expression, respectively. The EGFR over-expressed cells then underwent knockout, in which the EGFR targeting sgRNA was designed to only target the endogenous EGFR copies and preserve the exogenous EGFR copies. Followed by the knockout, the edited H1975 cells were seeded in 96 well plates at the concentration of […], cultured for about 2 weeks to allow single clones formation. The formed clones were screened by DNA sequencing and whole exon sequencing analysis for the desired edition. H1975-clone #28, H1975-clone #23, H1975-clone #25 and H1975-clone #8 were finally confirmed as homozygous Del19/T790M/C797S EGFR, Dell9/C797S EGFR, L858R/T790M/C797S EGFR and L858R/C797S EGFR clones, respectively.
(§2) H1975-#25, H1975-#28, H1975-#23 and H1975-#8 cells are treated with compounds diluted in 0.2% DMSO cell culture medium on day 2, incubate for 16h, 37° C., 5% CO2. the final concentration of compounds in all assay is start with 10 uM, 5-fold dilution, total 8 doses were included.
(§3) After 16h treatment, add HTRF lysis buffer to each well; seal the plate and incubate 1 hour at room temperature on a plate shaker; Once the cells are lysed, 16 μL of cell lysate are transferred to a PE 384-well HTRF detection plate; 4 μL of pre-mixed HTRF antibodies are added to each well; Cover the plate with a plate sealer, spin 1000 rpm for 1 min, Incubate overnight at room temperature; Read on BMG PheraStar with HTRF protocol (337 nm-665 nm-620 nm).
(§4) The IC50 (DC50) value of a compound can be obtained by fitting the following equation
(§5) Y=Bottom+(TOP−Bottom)/(1+((IC50/X)^hillslope))
(§6) Wherein, X and Y are known values, and IC50, Hillslope, Top and Bottom are the parameters obtained by fitting with software. Y is the inhibition percentage (calculated from the equation), X is the concentration of the compound: IC50 is the concentration of the compound when the 50% inhibition is reached. The smaller the IC50 value is, the stronger the inhibitory ability of the compound is. Vice versa, the higher the IC50 value is, the weaker the ability the inhibitory ability of the compound is: Hillslope represents the slope of the fitted curve, generally around 1*; Bottom represents the minimum value of the curve obtained by data fitting, which is generally 0%±20%; Top represents the maximum value of the curve obtained by data fitting, which is generally 100%±20%. The experimental data were fitted by calculating and analyzing with Dotmatics data analysis software.
(In TR-FRET formats the signal depends on donor and acceptor labels being close together.)

For assay [2], the target named is T1, L858R/T790M/C797S EGFR (Homo sapiens, UniProt P00533, C797S/L858R/T790M).
T1 construct: expressed in transfected cells; host or cells: H1975 clone #25 (lentiviral over-expression, endogenous EGFR knocked out by sgRNA)
T1 sequence (P00533 25-1210 T790M/C797S/L858R): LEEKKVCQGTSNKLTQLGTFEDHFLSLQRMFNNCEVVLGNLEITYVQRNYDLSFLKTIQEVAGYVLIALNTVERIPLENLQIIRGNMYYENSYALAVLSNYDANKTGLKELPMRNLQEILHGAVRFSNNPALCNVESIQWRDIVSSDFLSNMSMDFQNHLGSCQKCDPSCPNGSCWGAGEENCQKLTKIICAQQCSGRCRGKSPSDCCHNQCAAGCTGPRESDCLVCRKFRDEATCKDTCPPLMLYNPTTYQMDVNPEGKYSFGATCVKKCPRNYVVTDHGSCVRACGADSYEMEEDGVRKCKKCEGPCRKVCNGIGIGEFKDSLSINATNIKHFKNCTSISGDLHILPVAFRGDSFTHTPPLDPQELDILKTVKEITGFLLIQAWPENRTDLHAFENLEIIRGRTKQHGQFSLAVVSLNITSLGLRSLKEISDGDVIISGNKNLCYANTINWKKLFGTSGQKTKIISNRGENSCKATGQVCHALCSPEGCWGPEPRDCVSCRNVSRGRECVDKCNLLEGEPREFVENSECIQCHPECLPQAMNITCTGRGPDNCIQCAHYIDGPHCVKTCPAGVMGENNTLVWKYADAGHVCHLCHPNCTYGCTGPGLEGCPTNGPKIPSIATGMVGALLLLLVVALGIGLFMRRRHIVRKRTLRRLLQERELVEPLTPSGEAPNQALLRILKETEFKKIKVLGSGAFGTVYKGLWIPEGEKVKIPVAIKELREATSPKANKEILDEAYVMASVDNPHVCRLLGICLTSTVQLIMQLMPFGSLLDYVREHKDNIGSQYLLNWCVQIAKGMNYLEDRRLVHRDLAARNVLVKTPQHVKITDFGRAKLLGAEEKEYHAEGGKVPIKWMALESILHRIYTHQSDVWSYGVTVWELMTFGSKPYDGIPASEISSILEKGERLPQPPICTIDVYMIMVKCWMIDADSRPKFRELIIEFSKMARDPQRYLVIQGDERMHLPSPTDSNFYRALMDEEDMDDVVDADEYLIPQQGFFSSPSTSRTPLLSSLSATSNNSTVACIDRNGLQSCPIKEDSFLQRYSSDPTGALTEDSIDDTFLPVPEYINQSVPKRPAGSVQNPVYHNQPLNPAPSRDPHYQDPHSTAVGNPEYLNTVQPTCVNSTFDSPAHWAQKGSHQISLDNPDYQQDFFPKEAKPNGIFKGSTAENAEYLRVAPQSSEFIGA
Kind of assay: EGFR degradation HTRF assay in H1975-clone #25 (LTC) cells. In kind it is cell-based. As to conditions: 16h treatment; for DC50: H1975 # 25-LTC (L858R/T790M/C797S), HTRF; for Dmax: NCI-H1975, H1975 # 25-LTC (L858R/T790M/C797S), maximum percentage of degradation.
Source text: as §1, §2, §3, §4, §5, §6

Turning to `Cc1cc2cc(n1)-c1cnn(C)c1OCCC[C@@H](C)CN1/C(=N/C2=O)Nc2ccc(C(=O)N(C)C3CCN(C4CN(c5cc(F)c([C@H]6CCC(=O)NC6=O)c(F)c5)C4)CC3)cc21` [Example 290, (R,E)-N-(1-(1-(4-((R)-2,6-dioxopiperidin-3-yl)-3,5-difluorophenyl)azetidin-3-yl)piperidin-4-yl)-N,1′,2^6,7-tetramethyl-3-oxo-5^2,5′-dihydro-1^1H,5^1H-11-oxa-4-aza-5(2,1)-benzo[d]imidazola-2(2,4)-pyridina-1(4,5)-pyrazolacycloundecaphane-5^6-carboxamide], in assay [1], the half-maximal degradation concentration (DC50) (in general, the concentration giving 50% degradation) amounted to 0.64 nM and the “Dmax (%)” value was 80.73%. In assay [2], the half-maximal degradation concentration (DC50) is 0.644 nM and the greatest degradation seen (Dmax) (in general, the largest share of the target that was removed) amounted to 89.1%.

For `Cc1cc2cc(n1)-c1cnn(C)c1OCCC[C@@H](C)CN1/C(=N/C2=O)Nc2ccc(CN3CC4CCC3CN4C(=O)[C@@H]3CCN(c4cc(F)c([C@H]5CCC(=O)NC5=O)c(F)c4)C3)cc21` (stereo partly drawn) [Example 164, (3R)-3-(2,6-difluoro-4-((3R)-3-(5-(((R,E)-1^1,2^6,7-trimethyl-3-oxo-5^2,5^3-dihydro-1^1H,5^1H-11-oxa-4-aza-5(2,1)-benzo[d]imidazola-2(2,4)-pyridina-1(4,5)-pyrazolacycloundecaphane-5^6-yl)methyl)-2,5-diazabicyclo[2.2.2]octane-2-carbonyl)pyrrolidin-1-yl)phenyl)piperidine-2,6-dione], in assay [1], half-maximal degradation (DC50) was put at 1.95 nM and the “Dmax (%)” value turned out to be 73.21%. Moreover, in assay [2], half-maximal degradation (DC50) was put at 1.46 nM and the Dmax was 83.1%.

For the compound `Cc1cc2cc(n1)-c1cnn(C)c1OCCC[C@@H](C)CN1/C(=N/C2=O)Nc2ccc(C(=O)N(C)[C@@H]3CCN(C4CN(c5cc(F)c([C@H]6CCC(=O)NC6=O)c(F)c5)C4)C[C@@H]3F)cc21` [Example 382, (R,E)-N—((3S,4R)-1-(1-(4-((R)-2,6-dioxopiperidin-3-yl)-3,5-difluorophenyl)azetidin-3-yl)-3-fluoropiperidin-4-yl)-N,1^1,2^6,7-tetramethyl-3-oxo-5^2,5^3-dihydro-1^1H,5^1H-11-oxa-4-aza-5(2,1)-benzo[d]imidazola-2(2,4)-pyridina-1(4,5)-pyrazolacycloundecaphane-5^5-carboxamide], in assay [1], the half-maximal degradation concentration (DC50) worked out at 0.617 nM and the “Dmax (%)” value was determined as 86.76%. In assay [2], this compound had a 50% degradation concentration (DC50) of 0.233 nM and a Dmax of 87.5%.

As to `Cc1cc2cc(n1)-c1cnn(C)c1OCCC[C@@H](C)CN1/C(=N/C2=O)Nc2ccc(C(=O)N(C)C3CCN(CCc4cccc5c4n(C)c(=O)n5C4CCC(=O)NC4=O)CC3)cc21` (stereo partly drawn) [Example 314, (7R,E)-N-(1-(2-(1-(2,6-dioxopiperidin-3-yl)-3-methyl-2-oxo-2,3-dihydro-1H-benzo[d]imidazol-4-yl)ethyl)piperidin-4-yl)-N,1^1,2^6,7-tetramethyl-3-oxo-5^2,5′-dihydro-1^1H,5^1H-11-oxa-4-aza-5(2,1)-benzo[d]imidazola-2(2,4)-pyridina-1(4,5)-pyrazolacycloundecaphane-5^6-carboxamide], in assay [1], the half-maximal degradation concentration (DC50) was 3.37 nM and the “Dmax (%)” value amounted to 50.86%. In addition, in assay [2], the DC50 stood at 2.59 nM and the maximal degradation (Dmax) was found to be 75.3%.

As for `Cc1cc2cc(n1)-c1cnn(C)c1OCCC[C@@H](C)CN1/C(=N/C2=O)Nc2ccc(C(=O)N(C)[C@@H]3CCN(CCc4cc(F)c([C@H]5CCC(=O)NC5=O)c(F)c4)C[C@H]3F)cc21` [Example 346, (R,E)-N—((3R,4R)-1-(4-((R)-2,6-dioxopiperidin-3-yl)-3,5-difluorophenethyl)-3-fluoropiperidin-4-yl)-N,1^1,2^6,7-tetramethyl-3-oxo-5^2,5^3-dihydro-1^1H,5^1H-11-oxa-4-aza-5(2,1)-benzo[d]imidazola-2(2,4)-pyridina-1(4,5)-pyrazolacycloundecaphane-5^6-carboxamide], in assay [1], the DC50 turned out to be 0.411 nM and the “Dmax (%)” value is on record as 78.78%. In assay [2], this compound registered a half-maximal degradation concentration (DC50) of 0.526 nM and a Dmax of 84.8%.

(Values after patent US20240342292A1, “Compounds for the Degradation of EGFR Kinase” (BeiGene Switzerland GmbH, priority 2021, published 2024).)
